# Assay results taken from US20240409584A1, “PEPTIDE HAVING ANTI-AGING ACTIVITY, AND USE THEREOF” (CAREGEN CO., LTD., priority 2021, published 2024).
# How the values were obtained:
# NIH3T3 cells = assay: Intracellular ROS increased by UVA irradiation, DCFH-DA/FACS; format: cell-based, mouse; conditions: 8 J/cm^2 UVA, peptide 10, 50, 100 μM, 24 hours after irradiation, FIG. 3A
# Procedure: (§1) First, NIH3T3 cells and HaCaT cells were seeded in a 6-well plate at a cell density of 5×10^5 cell/well, respectively, and then the cells were cultured in DMEM medium containing 10% fetal bovine serum (FBS) for 24 hours. The cultured cells were washed once with serum free DMEM medium, and then the peptide of the present invention was mixed in 1 mL of the serum free DMEM medium at each of concentrations of 10, 50, and 100 μM, and dispensed into the cells. A positive control (PC) was treated with 50 μM of Trolox instead of the above peptide.
# (§2) The cells were cultured in a CO2 incubator at 37° C. for 1 hour. The medium of the cultured cells was transferred to a tube, 1 ml of PBS was added, and then the NIH3T3 cells were irradiated with 8 J/cm^2 of UVA and the HaCaT cells were irradiated with 15 mJ/cm^2 of UVB using a UV irradiator (VILBER LOURMAT, Cat No.: 3102-BSU, France). After removing PBS, 900 μL of the medium transferred to the tube was dispensed, and culture was performed in a CO2 incubator at 37° C. for 24 hours. After treatment with 10 μM of dichloro-dihydro-fluorescein diacetate (DCFH-DA), wrapping with a foil was performed, and culture was performed in a CO2 incubator at 37° C. for 30 minutes. […] After centrifugation, the cells were washed with PBS, and a fluorescence value was measured through FACS.
# fibronectin [1] = assay: Fibronectin gene expression decreased by UV in fibroblasts, RT-PCR; format: cell-based, mouse; conditions: NIH3T3 cells, 6 J/cm^2 UVA, peptide 10, 50, 100 μM, 6 hours after irradiation; FIGS. 4A, 4C
# Procedure: as §1, with “First, NIH3T3 cells were” for “First, NIH3T3 cells and HaCaT cells were”, “5×10^5 cell/well, and then” for “5×10^5 cell/well, respectively, and then”, “treated with 2.5 mM of N-acetylcysteine or 50 μM” for “treated with 50 μM”, “above peptide. The cells were cultured in a CO: incubator at 37° C. for 1 hour.” for “above peptide.”
# (§3) The medium of the cultured cells was transferred to a tube (e-tube), 1 ml of PBS was added, and irradiation was performed with 6 J/cm^2 of UVA using a UV irradiator (VILBER LOURMAT, Cat No.: 3102-BSU, France). After removing PBS, 900 μL of the medium transferred to the tube was dispensed, and culture was performed in a CO2 incubator at 37° C. for 6 hours. The cultured cells were washed twice with PBS, and then RNA was extracted from the cells using easy blue (iNtRON, Cat. No.: 17061, Korea). The amount of RNA extracted was quantified, 1,000 ng of RNA was added per tube, and RT reaction was performed using a kit (enzynomics, Cat. No.: RT200, Korea). Thereafter, RT-PCR was performed using a PCR kit (enzynomics, Cat. No.: R581T, Korea). […]
# elastin = assay: Elastin gene expression in fibroblasts, RT-PCR; format: cell-based, mouse; conditions: NIH3T3 cells, peptide 10, 50, 100 μM, 24 hours, serum free DMEM; FIGS. 1A, 1D
# Procedure: (§4) First, NIH3T3 cells (mouse fibroblast cell line) were seeded in a 6-well plate at a cell density of 3×10^5 cell/well, and then the cells were cultured in DMEM medium containing 10% fetal bovine serum (FBS) for 24 hours. The cultured cells were washed once with serum free DMEM medium, and the peptide of the present invention was mixed in 1 mL of the serum free DMEM medium at each of concentrations of 10, 50, and 100 μM, and dispensed into the cells. A positive control (PC) was treated with 5 ng/ml of TGF-B instead of the above peptide. The cells were cultured in a CO: incubator at 37° C. for 24 hours.
# (§5) The cultured cells were washed twice with PBS, and RNA was extracted from the cells using easy blue (iNtRON, Cat. No.: 17061, Korea). The amount of RNA extracted was quantified, 1, 000 ng of RNA was added per tube, and RT reaction was performed using a kit (enzynomics, Cat. No.: PT200, Korea). RT-PCR was performed using a PCR kit (enzynomics, Cat. No.: P581T, Korea). The sequences of the primers of collagen, fibronectin, and elastin used in RT-PCR and the sequence of the primer of GAPDH used to compare the total RNA amount of each treatment group are shown in [Table 2].
# HaCaT cells = assay: Intracellular ROS increased by UVB irradiation, DCFH-DA/FACS; format: cell-based; conditions: 15 mJ/cm^2 UVB, peptide 10, 50, 100 μM, 24 hours after irradiation, FIG. 3B
# Procedure: as §1, §2
# Colla1 = assay: Col1a1 gene expression decreased by UV in fibroblasts, RT-PCR; format: cell-based, mouse; conditions: NIH3T3 cells, 6 J/cm^2 UVA, peptide 10, 50, 100 μM, 6 hours after irradiation; FIGS. 4A, 4B
# Procedure: as §1, with “First, NIH3T3 cells were” for “First, NIH3T3 cells and HaCaT cells were”, “5×10^5 cell/well, and then” for “5×10^5 cell/well, respectively, and then”, “treated with 2.5 mM of N-acetylcysteine or 50 μM” for “treated with 50 μM”, “above peptide. The cells were cultured in a CO: incubator at 37° C. for 1 hour.” for “above peptide.”
# as §3
# fibronectin [2] = assay: Fibronectin gene expression in fibroblasts, RT-PCR; format: cell-based, mouse; conditions: NIH3T3 cells, peptide 10, 50, 100 μM, 24 hours, serum free DMEM; FIGS. 1A, 1C
# Procedure: as §4, §5
# MMP-9 = MMP-9 activity increased by UV in keratinocytes, gelatin zymography; format: cell-based; conditions: keratinocytes (HaCaT), 15 mJ/cm^2 UVB, peptide 10, 50, 100 μM, 6 hours after irradiation; FIG. 6B
# MMP-1 [3] = assay: MMP-1 expression increased by UV in keratinocytes, western blot; format: cell-based; conditions: HaCaT cells, 15 mJ/cm^2 UVB, peptide 10, 50, 100 μM, 24 hours after irradiation; FIG. 5B
# Procedure: as §1, with “medium, and the peptide” for “medium, and then the peptide”, “treated with 25 and 50 µM” for “treated with 50 μM”, “and 50 µM of Trolox” for “with 50 μM of Trolox”
# (§6) The cells were cultured in a CO2 incubator at 37° C. for 1 hour. The medium of the cultured cells was transferred to a tube (e-tube), 1 ml of PBS was added, and then the NIH3T3 cells were irradiated with 6 J/cm^2 of UVA and the HaCaT cells were irradiated with 15 mJ/cm^2 of UVB using a UV irradiator (VILBER LOURMAT, Cat No.: 3102-BSU, France). After removing PBS, 900 μL of the medium transferred to the tube was added, and culture was performed in a CO2 incubator at 37° C. for 24 hours. The medium of the cultured cells was transferred to a tube, the cells were washed twice with PBS, and then a cell lysis buffer was added to lyse the cells. A sample was prepared by treating the cells with 5× sample buffer, and then SDS-PAGE was performed using 10% SDS-PAGE gel. The proteins isolated through SDS-PAGE were transferred to a PVDF membrane. […]
# MMP-1 [4] = assay: MMP-1 expression increased by UV in fibroblasts, western blot; format: cell-based, mouse; conditions: NIH3T3 cells, 6 J/cm^2 UVA, peptide 10, 50, 100 μM, 24 hours after irradiation; FIG. 5A
# Procedure: as §1, with “medium, and the peptide” for “medium, and then the peptide”, “treated with 25 and 50 µM” for “treated with 50 μM”, “and 50 µM of Trolox” for “with 50 μM of Trolox”
# as §6
# Col1a1 = Col1a1 (collagen) gene expression in fibroblasts, RT-PCR; format: cell-based, mouse; conditions: NIH3T3 cells, peptide 10, 50, 100 μM, 24 hours, serum free DMEM; FIGS. 1A, 1B
# Procedure: as §4, §5
# MMP-2 = MMP-2 activity increased by UV in fibroblasts, gelatin zymography; format: cell-based, mouse; conditions: fibroblasts (NIH3T3), 6 J/cm^2 UVA, peptide 10, 50, 100 μM, 6 hours after irradiation; FIG. 6A
# AQP3 = AQP3 gene expression in keratinocytes, RT-PCR; format: cell-based; conditions: HaCaT cells, peptide 10, 50, 100 μM, 24 hours; FIGS. 2A, 2B
# Procedure: (§7) First, HaCaT cells were seeded in a 6-well plate at a cell density of 3×10^5 cell/well, and then the cells were cultured in DMEM medium containing 10% fetal bovine serum (FBS) for 24 hours. The cultured cells were washed once with serum free DMEM medium, and then the peptide of the present invention was mixed in 1 mL of the serum free DMEM medium at each of concentrations of 10, 50, and 100 μM, and dispensed into the cells. A positive control (PC) was treated with 100 nM of EGF instead of the above peptide. The cells were cultured in a CO: incubator at 37° C. for 24 hours.
# (§8) The cultured cells were washed twice with PBS, and then RNA was extracted from the cells using easy blue (iNtRON, Cat. No.: 17061, Korea). The extracted RNA was subjected to RT reaction using a kit (enzynomics, Cat. No.: RT200, Korea). Thereafter, RT-PCR was performed using a PCR kit (enzynomics, Cat. No.: R581T, Korea). The sequences of the primers of AQP3 and SIRT1 used in RT-PCR and the sequence of the primer of GAPDH used to compare the total RNA amount of each treatment group are shown in [Table 2].
# SIRT1 = SIRT1 gene expression in keratinocytes, RT-PCR; format: cell-based; conditions: HaCaT cells, peptide 10, 50, 100 μM, 24 hours; FIGS. 2A, 2C
# Procedure: as §7, §8
sequence,measurement,setting,value
DSSPLRSPSYAS [SEQ ID NO: 1],intracellular reactive oxygen species level increased by UV irradiation,NIH3T3 cells,decreased
same,mRNA level of fibronectin decreased by UV irradiation,fibronectin [1],increased again
same,expression of the elastin gene,elastin,gradually increased as a concentration of the peptide increased
same,intracellular reactive oxygen species level increased by UV irradiation,HaCaT cells,decreased
same,mRNA level of Colla1 decreased by UV irradiation,Colla1,increased again
same,expression of the fibronectin gene,fibronectin [2],gradually increased as a concentration of the peptide increased
same,activity of MMP-9 protein increased by ultraviolet rays,MMP-9,inhibited
same,expression of MMP-1 increased by UV irradiation,MMP-1 [3],inhibited
same,expression of MMP-1 increased by UV irradiation,MMP-1 [4],inhibited
same,expression of the collagen gene,Col1a1,gradually increased as a concentration of the peptide increased
same,activity of MMP-2 protein increased by ultraviolet rays,MMP-2,inhibited
same,mRNA level of AQP3,AQP3,increased
same,mRNA level of SIRT1,SIRT1,increased
